Legend:
mTOR = experiment: Activation by phosphorylation in SKOV-3 cells; format: cell-based, human
Experimental: (§1) FIGS. 12A-12C and FIGS. 13A-13C illustrate key findings related to the mechanism of action of compound 5 against ovarian cancer. The studies shown here were performed in SKOV-3 human ovarian cancer cells. FIG. 12A: Left: Compound 5 increases the percentage of cells with acridine orange staining determined by flow cytometry (4% 4→38% after treatment with compound 5) and indicating the induction of autophagy. Right: Electron micrographs show morphological features of cells undergoing autophagy. Yellow arrowheads: vacuoles; white arrowheads: autophagosomes. […] N: nucleus; ER: endoplasmic reticulum with visible ribosomes. The left micrograph shown normal ER (circled) in a vehicle-treated cell. […] The latter finding is diagnostic of ER stress. Magnification: 6,800×. FIG. 12C: Compound 5 suppresses STAT3, mTOR and JNK activation by phosphorylation, as well as the levels of COT.

JNK = experiment: Activation by phosphorylation in SKOV-3 cells; format: cell-based, human
Experimental: as §1

STAT3 = experiment: Activation by phosphorylation in SKOV-3 cells; format: cell-based, human
Experimental: as §1

[1] = system: SKOV-3 human ovarian cancer cells; experiment: Transmission electron microscopy, ER stress; format: cell-based; settings: 1.5×IC50
Experimental: as §1

COT = experiment: Protein levels in SKOV-3 cells; format: cell-based, human
Experimental: as §1

PERK = experiment: Activation by phosphorylation in SKOV-3 cells; format: cell-based, human; settings: 1.5×IC50
Source text: (§2) FIG. 13A: Compound 5 induces the phosphorylation of eIF2α, confirming integrated stress response. p-eIF2αinduces ATF4 that suppresses 5′-cap dependent translation initiation, shown below. […] The levels of reporter proteins used in the translation assay (Pierce™ Renilla-Firefly Luciferase Dual Assay Kit; Thermo Scientific, Grand Island, NY) were normalized to the levels of intracellular FLUC-RLUC transcripts and are shown as percent of untreated control cells. RLU=Relative light units. 5′-cap dependent translation initiation was much less and occurred later. Values: Mean±SEM; *, p<0.05 and **, p<0.01 vs. control. […] Loading controls: β-actin and GADPH.

GCN2 = experiment: Activation by phosphorylation in SKOV-3 cells; format: cell-based, human; settings: 1.5×IC50
Source text: as §2

eIF2α = experiment: Phosphorylation in SKOV-3 cells (integrated stress response); format: cell-based, human
Source text: as §2

VEGF-B = experiment: Secreted VEGF in culture medium by ELISA; format: cell-based, human
Experimental: (§3) The effect of compounds 2, 5, and 6 on VEGF production was examined. For example, SKOV-3 ovarian cancer cells grown in culture were treated with compound 5 1×IC50 for up to 24 h. Secreted VEGF was assayed in the culture medium by ELISA (R&D Systems). […] For example, at 24 h, the reduction of secreted VEGF-A over the corresponding controls was: OVCAR3=100%, A2780=86%, A2780cis=100%, and A2780ADR=100%. Compound 5 suppressed VEGF-B by 90-92% compared to control. The anti-VEFG effect of Compound 5 is as strong in the drug-resistant as in the drug-sensitive cell lines.

VEGF-A = experiment: Secreted VEGF in culture medium by ELISA; format: cell-based, human
Experimental: as §3

SKOV-3 ovarian cancer = experiment: 24 hr growth inhibition of cell line; format: cell-based; settings: Homo sapiens, SK-OV-3, 24 h
Experimental: (§4) The therapeutic efficacy of compounds 2, 5, and 6 was assessed in human and murine cell lines of varied tissue origin, and their 24 hr 50% inhibitory concentration was determined by following standard methodologies. Typical results are shown in the Table 5, indicating a broad anticancer effect.
Ovarian cancer cells were studied in greater detail using the following ovarian cancer cell lines: SKOV-3, OVCAR3, A2780 (and two cell lines derived from it, A2870cis that is resistant to cisplatin, and A2870ADR that is resistant to doxorubicin (Adriamycin)), and HEY (sensitive to paclitaxel (Taxol), and its derivative HEY-T30 that is Taxol-resistant). […]

A549 lung cancer = experiment: 24 hr growth inhibition of cell line; format: cell-based; settings: Homo sapiens
Experimental: as §4

RAW264 murine macrophage = experiment: 24 hr growth inhibition of cell line; format: cell-based; settings: Mus musculus, RAW264.7, 24 h
Experimental: as §4

AGS gastric cancer = experiment: 24 hr growth inhibition of cell line; format: cell-based; settings: Homo sapiens
Experimental: as §4

HCT116 colon cancer = experiment: 24 hr growth inhibition of cell line; format: cell-based; settings: Homo sapiens, HCT-116, 24 h
Experimental: as §4

A2780 xenografts = experiment: Subcutaneous xenografts in nude mice, platinum sensitive; format: in vivo; settings: compound 5 15 mg/kg/day six days a week ip; cis-platinum 5.5 mg/kg one time a week ip
Experimental: (§5) To determine whether compound 5 is efficacious against chemotherapy-resistant ovarian cancer, three pairs of sensitive and resistant human ovarian cancer cell lines were grown as subcutaneous xenografts in nude mice and treated as summarized in FIG. 10. These cell lines were: A2780, sensitive to both cis-platinum and Adriamycin (doxorubicin); A2780cis, resistant to cis-platinum; A2780ADR, resistant to Adriamycin: HEY, sensitive to Taxol; HEY-T30, resistant to Taxol. The treatments administered were: vehicle control; compound 5, 15 mg/kg/day six days a week, ip; cis-platinum 5.5 mg/kg, one time a week ip; Adriamycin 3 mg/kg twice a week ip; and Taxol 20 mg/kg twice a week ip.

A2780cis xenografts = experiment: Subcutaneous xenografts in nude mice, cisplatin resistant; format: in vivo; settings: compound 5 15 mg/kg/day six days a week ip; cis-platinum 5.5 mg/kg one time a week ip
Experimental: Compound 6 was also efficacious against chemotherapy-resistant ovarian cancer. […] The effect of compound 6 in cisplatin resistant (A2780cis) and doxorubicin (Adriamycin) resistant (A2780ADR) tumors was studied. Briefly, each of these cell lines was subcutaneously inoculated into athymic nude mice and when the tumor size reached 100-200 mm^3, compound 6 150 mg/kg/day or its vehicle were given i.p. After 11 days of treatment, for the cisplatin-resistant tumors the tumor volume of the vehicle group was 2388±127 mm^3 and for compound 6 group 1032±108 mm^3 (mean±SEM; P<0.02); while for the doxorubicin-resistant tumors these values were: vehicle group=1369±337 mm^3 and compound 6 group=396±182 mm^3 (P<0.02).
as §5

[2] = system: SKOV-3 human ovarian cancer cells; experiment: Acridine orange staining by flow cytometry (autophagy); format: cell-based; settings: after treatment; 4% before
Experimental: as §1

[3] = system: chicken embryo chorioallantoic membrane; experiment: Chicken embryo chorioallantoic membrane assay; format: in vivo

SMILES: CCN(CC)CCCCNC(=O)c1ccccc1SC/C=C(\C)CC/C=C(\C)CCC=C(C)C [Compound 5]
- mTOR activation by phosphorylation (mTOR): suppresses
- JNK activation by phosphorylation (JNK): suppresses
- STAT3 activation by phosphorylation (STAT3): suppresses
- endoplasmic reticulum (ER) stress [1]: induction of endoplasmic reticulum (ER) stress
- levels of COT (COT): suppresses
- PERK activation by phosphorylation (PERK): activated by phosphorylation
- GCN2 activation by phosphorylation (GCN2): activated by phosphorylation
- phosphorylation of eIF2α (eIF2α): induces
- suppression of VEGF-B compared to control (VEGF-B): 90-92%
- reduction of secreted VEGF-A over controls (VEGF-A; A2780, 24 h): 86%
- reduction of secreted VEGF-A over controls (VEGF-A; A2780ADR, 24 h): 100%
- reduction of secreted VEGF-A over controls (VEGF-A; A2780cis, 24 h): 100%
- reduction of secreted VEGF-A over controls (VEGF-A; OVCAR3, 24 h): 100%
- suppression of secreted VEGF-A levels (VEGF-A; SKOV-3, 1×IC50, 6 hr): 80%
- suppression of secreted VEGF-A levels (VEGF-A; SKOV-3, 1×IC50, 24 hr): 100%
- IC50 (SKOV-3 ovarian cancer): 9 µM
- IC50 (A549 lung cancer): 19 µM
- IC50 (RAW264 murine macrophage): 5 µM
- IC50 (AGS gastric cancer): 14 µM
- IC50 (HCT116 colon cancer): 10 µM
- growth of platinum-sensitive xenografts (A2780 xenografts): suppressed the growth
- growth of platinum-resistant xenografts (A2780cis xenografts): as efficacious as in the platinum sensitive xenografts
- percentage of cells with acridine orange staining [2]: 38%
- new vessels after treatment ([3]; control 58±4.9 (compound 5), 42.6±8.2 (compound 6)): 46±2.1
- reduction of formation of new vessels ([3]; in vivo): 21%

From US12599599B2, “Anti-inflammatory, anti-cancer, and anti-angiogenic compounds, pharmaceutical compositions, and methods of making and using thereof” (MEDICON PHARMACEUTICALS, INC., priority 2017, dated 2026)
